{"source": "ChEMBL document CHEMBL5046321", "about": "“Discovery by Virtual Screening of an Inhibitor of CDK5-Mediated PPARγ Phosphorylation” (ACS Med Chem Lett, 2022)", "key": {"[1]": {"experiment": "Metabolic stability in rat Hepatocyte assessed as intrinsic clearance in 1 million cells/mL measured upto 120 mins by LC-MS/MS analysis", "format": "ADME, cell-based", "conditions": "hepatocytes, read-out: CLH"}, "[2]": {"experiment": "Cmax in lean C57BL/6J mouse at 100 umol/kg, po dosed daily for 7 days by HPLC-MS analysis", "format": "ADME, organism-based", "parameters": "route oral, dose 100 µmol/kg, time 7 day", "conditions": "in vivo"}, "[3]": {"experiment": "Oral bioavailability in lean C57BL/6J mouse at 100 umol/kg dosed daily for 7 days by HPLC-MS analysis", "format": "ADME, organism-based", "conditions": "in vivo, at 100 µmol/kg, time 7 day"}, "[4]": {"experiment": "Aqueous solubility of the compound by LC-MS/MS analysis", "format": "physicochemical", "conditions": "buffer"}, "[5]": {"experiment": "Metabolic stability in human liver microsomes assessed as intrinsic clearance measured upto 30 mins by LC-MS/MS analysis", "format": "ADME, Microsome", "conditions": "read-out: CLH"}, "[6]": {"experiment": "Lipophilicity, logD of compound at pH 7.4 by shake flask assay based LC-MS/MS analysis", "format": "physicochemical", "conditions": "buffer"}, "[7]": {"experiment": "Metabolic stability in mouse Hepatocyte assessed as intrinsic clearance in 1 million cells/mL by LC-MS/MS analysis", "format": "ADME, cell-based", "conditions": "hepatocytes, read-out: CLH"}, "[8]": {"experiment": "Apparent permeability in human Caco-2 cells at 10 uM incubated for 45 to 120 mins by LC-MS/MS analysis", "format": "ADME, cell-based", "conditions": "time 45-120 min, read-out: permeability"}, "[9]": {"experiment": "Half life in lean C57BL/6J mouse at 100 umol/kg, po dosed daily for 7 days by HPLC-MS analysis", "format": "ADME, organism-based", "conditions": "in vivo, dose 100 µmol/kg, time 7 day"}, "[10]": {"experiment": "Metabolic stability in human Hepatocyte assessed as intrinsic clearance in 1 million cells/mL measured upto 60 mins by LC-MS/MS analysis", "format": "ADME, cell-based", "conditions": "hepatocytes, read-out: CLH"}}, "data": [{"molecule": "O=C(O)c1nn(Cc2ccc(Cl)c(Cl)c2)c(=O)c2cc(Oc3ccccc3)ccc12", "values": [{"measurement": "hepatocyte CLint", "setting": "[1]", "value": 8.8, "unit": "µL/min/1e6 cells"}, {"measurement": "Cmax", "setting": "[2]", "value": 167, "unit": "µM"}, {"measurement": "bioavailability", "setting": "[3]", "value": 109, "unit": "%"}, {"measurement": "solubility", "setting": "[4]", "value": 324, "unit": "µM"}, {"measurement": "microsomal CLint", "setting": "[5]", "value": "< 4", "unit": "µL/min/mg"}, {"measurement": "logD", "setting": "[6]", "value": 2.3}, {"measurement": "hepatocyte CLint", "setting": "[7]", "value": 10, "unit": "µL/min/1e6 cells"}, {"measurement": "Papp at 10 µM", "setting": "[8]", "value": 13, "unit": "×10⁻⁶ cm/s"}, {"measurement": "half-life", "setting": "[9]", "value": 5, "unit": "h"}, {"measurement": "hepatocyte CLint", "setting": "[10]", "value": 15.2, "unit": "µL/min/1e6 cells"}]}]}
